# Laboratory results published in patent US20220323437A1, “METHODS FOR TREATING PULMONARY ARTERIAL HYPERTENSION” (ACTELION PHARMACEUTICALS LTD, priority 2019, published 2022).
# Read-outs that look alike come from different tables or passages of the source.
# Assay: Pharmacokinetics of selexipag and ACT-333679 after oral and i.v. selexipag in subjects with stable PAH (Phase 3 switch study)
# Format: in vivo, human
# Settings: for AUC / Cmax: human, plasma, steady state; for AUC: read-out: AUCτ, ss Geom. Mean; for Cmax: read-out: Cmax, ss Geom. Mean
# Method: This was a prospective, multicenter, open-label, single-sequence, cross-over, Phase 3 study. Based on the dose of selexipag received at study entry, subjects were allocated to one of the following groups, selexipag 200-1000 μg b.i.d. or selexipag 1200-1600 μg b.i.d. See, FIG. 1. The study comprised the following periods:
# (ii) Treatment and observation period: The treatment and observation period included the following consecutive periods: • Period 1 included oral selexipag pre-treatment period for 1 day, in-hospital. This period started with intake of the morning dose of oral selexipag on Day 1 at Visit 2 and ended the following day, before initiation of the first infusion of i.v. selexipag. • Period 2 included i.v. selexipag treatment period for 36 hours [3 infusions], in-hospital. This period started in the morning of Day 2 at Visit 2 with the start of the first infusion of i.v. selexipag and ended in the evening of Day 3 at Visit 2 before the evening administration of oral selexipag. Administration of oral selexipag was interrupted during the i.v. selexipag treatment period. • Period 3 included oral selexipag post-treatment period for 7 to 11 day. This period started in the evening of Day 3 at Visit 2 with the administration of oral selexipag and ended 7-11 days later, at Visit 3.
# Selexipag was provided as a dry powder to be reconstituted as an injectable solution for i.v. administration. Before administration, selexipag dry powder was to be reconstituted and diluted with sterile 0.9% NaCl solution. Each subject received an i.v. selexipag dose that corresponded to the subject's individual stable dose of oral selexipag. […] See, Table 4.
# The intravenous infusion took place over a 87-minute period (2 infusions on Day 2 and 1 infusion on Day 3)
# The following PK endpoints were analyzed for selexipag and its active metabolite, ACT-333679, after oral selexipag in Period 1 and after i.v. selexipag administration in Period 2. See, FIG. 2. • The area under the plasma-concentration time curve (AUC) during a dose interval at steady state (AUCτ, ss). • The maximum plasma concentration at steady state (Cmax, ss). • The time to reach maximum plasma concentration at steady state (tmax, ss). • Trough plasma concentration at steady state (Ctrough, ss).
compound,measurement,setting,value
CC(C)N(CCCCOCC(=O)O)c1cnc(-c2ccccc2)c(-c2ccccc2)n1 [ACT-333679],"tmax, ss between the i.v. and oral selexipag periods",Period 2 vs Period 1,comparable
same,slope of dose proportional increase in exposure,"after i.v. selexipag, 450-1800 μg b.i.d. dose range",0.697
same,exposure after i.v. and oral selexipag administration,conclusion of the study,comparable
same,AUC,"iv, Period 2 (i.v. selexipag)",15.9 ng·h/mL
same,Cmax,"iv, Period 2 (i.v. selexipag)",2.6 ng/mL
same,AUC,Period 1 (oral selexipag),19.3 ng·h/mL
same,Cmax,Period 1 (oral selexipag),3.3 ng/mL
same,"dose-normalized geometric mean ratio (i.v./oral selexipag) for AUCτ, ss (90% CI)",i.v. to oral dose ratio 1.125,"0.80 (0.71, 0.90)"
same,"dose-normalized geometric mean ratio (i.v./oral selexipag) for Cmax, ss (90% CI)",i.v. to oral dose ratio 1.125,"0.79 (0.65, 0.96)"
